Experimental findings from a melting point compilation (Tetko et al.) are described below.

One may read the melting point as the temperature, or range, at which the solid turns liquid.

`O=[N+]([O-])c1ccc2c3c(ccc(C(Cl)=Cc4ccccc4)c13)CC2` displayed a melting point of 161 °C.
Then `CC1(O)CNC(=O)C1` (stereo unspecified), with 140 °C.
Then `CC(=O)c1ccc(F)c(Cl)c1`, with 42 to 44 °C; and `O=C(O)c1cccnc1Oc1ccccc1`, with 181 °C.
The result for `CC(=O)c1cc(Cl)ccc1O` reads 53 to 56 °C; that for `CCOC(=O)C(C#N)=NNc1cccc([N+](=O)[O-])c1`, 155 to 156 °C; that for `Cc1nc(Br)ccc1Br`, 38 °C.
Compound `COc1ccc(F)c(F)c1C#N` returned a melting point of 81 °C.
In turn, `CN(C)c1ccc(C=C2C3=C(CCCC3)OC3=C2CCCC3)cc1` registered a melting point of 164 °C.
In turn, `COc1ccc(CC2c3cc(OC)c(OC)cc3CCN2C)cc1O` (stereo unspecified) came in with a melting point of 184 °C.
The result for `CC(=O)NC(CCC(N)=O)C(=O)O` (stereo unspecified) reads 197 °C; that for `O=C(O)[C@H]1[C@H](C(=O)O)[C@H]2C=C[C@@H]1C2`, 185 °C.
Then `Clc1ccncc1`, with -43.5 °C.
Then `NNc1ncnc2scc(-c3ccccc3)c12`, with 150 to 152 °C; and `CC(C)(C)OC(=O)N1CCC(OCC(=O)NC2CC2)CC1`, with 86 °C; and `CCCCCCCCCCCCOc1ccccc1OCCCCCCCCCCCC`, with 45 to 48 °C.
Compound `CCOC(=O)c1nn(-c2ccc(C)cc2)c(C)c1C(=O)C1=NOC2C(=O)N(c3ccc(F)cc3)C(=O)C12` (stereo unspecified) gave a melting point of 211 °C.
In the case of `Brc1ccc(Cn2ccnc2)cc1`, the melting point was 75 to 80 °C.
Then `Cc1ccccc1NC(=N)NC(=N)N`, with 144 °C.
Then `COC(=O)C1Cc2ccccc2C(=O)C1C(=O)OC` (stereo unspecified), with 88 °C.
The result for `CC1CCC2(C)C3=C(C(=O)C4(CC4C)C(O)C3=O)C(O)C(O)C2C1C` (stereo unspecified) reads 177 to 178 °C; that for `Clc1ncccc1-c1ccc(Br)nc1`, 161 °C; that for `CCOc1ccc2cc(O)c(O)cc2c1`, 132 °C.
`Oc1ccccc1Cc1ccccc1` showed a melting point of 52 °C.
`c1cc(CCCc2ccncc2)ccn1` displayed a melting point of 55 °C.
Then `N#CCCO`, with -46 °C; and `CCCCOc1ccc(/N=N/c2ccc(CCCC)cc2)cc1`, with 64 to 66 °C.
The result for `CCN(CC)C(=O)c1ccccc1CC(=O)c1ccccc1C` reads 47 °C.
The result for `CN(c1c(F)c(F)c(C#N)c(F)c1F)[N+](=O)[O-]` reads 53 °C.
The compound `CC(C)(C)C(=O)C(Oc1ccc(Cl)cc1)n1cncn1` (stereo unspecified) registered a melting point of 82.3 °C.
The result for `COc1ccccc1-c1nc(CCl)no1` reads 66 to 67 °C; that for `O=C(O)c1cnc(NCc2ccccc2)s1`, 163 to 164 °C; that for `O=C1CN=C(c2ccccc2)c2cc(Cl)ccc2N1CC1CC1`, 146 °C.
The result for `CC1(C)OCC(C(O)C(O)C2COC(C)(C)O2)O1` (stereo unspecified) reads 114 °C.
Turning to `COc1ccc(C=CC(=O)c2ccccc2)c(OC)c1`, the melting point fell in the range of 69 to 70 °C.
`O=C(O)C1(C(F)(F)F)CCCCC1`: the melting point stood at 69.5 °C.
The result for `O=C(Cl)c1ccc2nccnc2c1` reads 119 °C; that for `N#Cc1cc2[nH]c(=O)c(=O)[nH]c2cc1[N+](=O)[O-]`, 300 °C; that for `Cc1ccc2c(c1)OC(C)(c1ccc(C)cc1OC(=O)c1ccccc1)CC2(C)C` (stereo unspecified), 149 °C.
Then `Cc1c2ccccc2c(C)c2c1ccc1ccccc12`, with 122 °C; and `Cc1ncc(C(=O)O)c(-c2ccccc2)n1`, with 210 to 211 °C; and `Nc1ccc(-n2cccn2)cc1`, with 54 to 55 °C.
Compound `Cc1ccccc1N1CSc2nnc(-c3cccc([N+](=O)[O-])c3)n2C1` showed a melting point of 239 to 240 °C.
Then `O=C1NC(=S)NC(=O)C1=NNc1ccccc1[N+](=O)[O-]`, with 330 °C; and `O=C(C1CCNCC1)N1CCCC1`, with 45 to 47 °C.
Then `CNC(c1cccc(C(F)(F)F)c1)C(NC)c1cccc(C(F)(F)F)c1` (stereo unspecified), with 113 to 115 °C; and `CCOC(=O)c1ccc(Oc2ccc(C)nn2)cc1`, with 70 to 73 °C; and `Cc1cc(Cl)ccc1Oc1ncccc1[N+](=O)[O-]`, with 89 to 91 °C.
Then `O=S(=O)(CCCl)c1ccccc1`, with 54 °C; and `CC12CCC(/C(=C/N(OC(=O)c3ccc([N+](=O)[O-])cc3)c3ccccc3)C1=O)C2(C)C` (stereo unspecified), with 180 °C; and `O=Cc1ccc2nccn2c1`, with 152 °C.
`N#CCCn1ccnc1-c1ccccc1` showed a melting point of 99.5 to 102 °C.
Then `O=C(CCCl)c1ccc(F)cc1`, with 47.5 °C; and `CCCCCCCCCCCC1CCCC1`, with -10 °C; and `CCCCCCCCCCCCOC(C)=O`, with 1.3 °C.
In turn, `COC(=O)c1c(C)cc(=O)oc1C` registered a melting point of 66 to 70 °C.
`CC(C)(C)OC(=O)NC(Cc1cccnc1)C(=O)O` (stereo unspecified) displayed a melting point of 137 °C.
Then `OCc1ccco1`, with -14.6 °C.
Then `COc1cc([N+](=O)[O-])c(OC)cc1N`, with 153 to 157 °C; and `O=C(O)CCC(=O)Nc1ccccc1`, with 148 °C; and `CC(C)C[C@H]1OC[C@@H](C)CO1`, with under -21 °C.
Then `CCCCOC(=O)c1ccccc1O`, with -5.9 °C; and `O=C1CNCCCNCC(=O)NCCCN1`, with 141 °C; and `O=C(NCCO)C1CCCNC1` (stereo unspecified), with 119 °C.
Take `CCn1c2c(c3cc(OC)ccc31)CCc1cc(OC)ccc1-2`: the melting point was in the range of 145 to 147 °C.
Then `O=C(O)C1C2CCC(C2)C1C(=O)c1ccccc1` (stereo unspecified), with 180 to 183 °C; and `OCCN(CCO)c1ccccc1`, with 57 °C; and `CC(=O)Oc1cccc2c1C(=O)c1c(OC(C)=O)cc(C(=O)O)cc1C2=O`, with 218 °C.
Then `S=C=Nc1ccccc1Br`, with 20 °C; and `N#Cc1ccc(OC(F)F)cc1`, with 40 to 42 °C.
The result for `CCOC(=O)c1csnn1` reads 86 to 88 °C; that for `NC(=O)C(Br)CBr` (stereo unspecified), 133 °C; that for `Cc1cc(N)ccc1[N+](=O)[O-]`, 135 °C.
Compound `CC[C@H]1CC[C@H](C(=O)O)CC1` yielded a melting point of 50 °C.
For `CC12COC(=O)CC1CCC1C2CCC2(C)C1CCC2(C)O` (stereo unspecified), the melting point turned out to be 236 °C.
Then `NC(=S)COc1cccc(Cl)c1`, with 122 to 124 °C; and `CC(=O)CCc1cc2c(cc1[N+](=O)[O-])CCC(C)N2C(=O)c1ccccc1` (stereo unspecified), with 138 °C.
Then `CC(C)(C)c1cc([N+](=O)[O-])c2cc(C(C)(C)C)cc([N+](=O)[O-])c2c1`, with 198 to 200 °C; and `CCOC(=O)Cc1ccc([N+](=O)[O-])cc1`, with 64 °C.
Then `Cc1ccc(C2(C(=O)O)CC2)cc1`, with 109 to 114 °C; and `Cc1nc2cc([N+](=O)[O-])ccc2[nH]1`, with 224 °C; and `Cc1cc(Br)cc([N+](=O)[O-])c1`, with 83 °C.
The compound `CC12CCC(CCC1=O)C2(C)C` (stereo unspecified) returned a melting point of 193 °C.
Then `O=C(O)c1cccc2cc[nH]c12`, with 202 to 204 °C; and `CC(C)(C)OC[C@H](NC(=O)OCC1c2ccccc2-c2ccccc21)C(=O)O`, with 127 to 131 °C; and `Cc1cc(C(=O)O)cc(C)c1OCc1ccccc1`, with 159 °C.
Then `O=[N+]([O-])c1cc([N+](=O)[O-])c(C(Br)=Cc2ccccc2)cc1/C=C\c1ccccc1`, with 194 to 196 °C; and `Cc1nn(C)c(Cl)c1S(=O)(=O)O`, with 308 to 310 °C; and `N#CCCOc1ccc(Cl)cc1`, with 45 to 47 °C.
Then `O=c1cnn(C2OC(CO)C(O)C2O)c(=O)[nH]1` (stereo unspecified), with 158 °C; and `Nc1cnccc1Cl`, with 61 °C; and `Clc1cc2c(c(Cl)c1Cl)Oc1c(Cl)c(Cl)c(Cl)c(Cl)c1O2`, with 264 °C.
For the compound `CCCc1c(C(=O)OCC)cnn1-c1ccc(Cl)cc1`, the melting point was in the range of 63 to 65 °C.
The result for `COc1ccc(Br)cc1CC(NC(=O)OC(C)(C)C)C(=O)O` (stereo unspecified) reads 132 °C; that for `S=c1nnc(-c2ccccc2)c(Nc2ccccc2Cl)[nH]1`, 314 °C; that for `O=C(O)c1ccc(Cl)nc1Cl`, 148 °C.
In turn, `CC1=CC(=C(C#N)C#N)C=C(C=Cc2ccc(N(C)C)cc2)O1` registered a melting point of 212 °C.
The result for `CC(C)=CCNC(=N)N` reads 62.5 °C; that for `CC(=O)Nc1ccc(C)c(NS(=O)(=O)C(F)(F)F)c1`, 176 °C.
Then `Cc1ccc(OC(C)(C)C(=O)O)c2c1CCC2`, with 89 to 90 °C; and `CCOC(=O)C(C)(C#N)c1ccccc1[N+](=O)[O-]` (stereo unspecified), with 68 °C; and `O=C(O)c1ccc(-c2ccco2)nc1`, with 200 °C.
The result for `COc1cc(N)ccc1Cl` reads 80 °C; that for `O=[N+]([O-])c1cc([N+](=O)[O-])c(C(Cl)=Cc2ccccc2)cc1/C=C\c1ccccc1`, 191 °C; that for `NS(=O)(=O)c1ccc(N=C=S)cc1`, 210 to 212 °C.
`NC(=S)CSc1ccccc1` showed a melting point of 88 to 91 °C.
As for `Cc1ccc(C(C)C)c(O)c1C(=O)O`, the melting point is 127 °C.
Then `O=C(O)C1CCCN(C(=O)OCc2ccccc2)C1` (stereo unspecified), with 90 to 94 °C.
Compound `CCCCCCCCCCCCOc1ccc(C(C)=O)cc1OCCCCCCCCCCCC` showed a melting point of 62 to 67 °C.
The result for `COC1C=CC2=CCN3CCC4=C(CC(=O)OC4)C23C1` (stereo unspecified) reads 99.5 °C; that for `O=C(c1ccccc1)c1ccc(F)cc1`, 47 °C.
